# “Also recorded” adds a separate entry of the source. Like-named read-outs stand apart in the source and are kept apart here.
# Columns and labels:
# HaCat keratinocytes [1] = experiment: clonal growth assay of HaCat keratinocytes with growth factor/retinoid supplements; assay type: cell-based, human; details: for keratinocyte clonal growth: FIG. 1
# Method: In the following experiment, the effect of on keratinocyte growth of adding single or multiple additives to standard medium (Std) was examined in a clonal growth assay performed according to the methods described previously (Wille et al., 1984). Briefly, a sterile […] plastic disposable Petri dish is seed with 5,000 high cloning HaCat cells, and refed complete (E^+I^+) serum free HECK 109 medium at incubated at 37° C. for 24 to 48 hours. The cells are washed with ice-cold Standard HECK 109 medium and refed various combinations of growth factors and retinyl acetate (RetAC).
# FIG. 1 presents a photograph showing the results of incubating the HaCat seeded clonal assay dishes various supplements. The cells were fixed with 50% ethanol and stained with 0.2% crystal violet stain. This imparts a blue color to the cells. The stained dishes were then photographed.
# In a second series of experiments the HaCat keratinocyte clonal growth after one day (D1) was compared for the combination: insulin plus retinyl acetate (Ins+Rac, D1) and the combination: EGF plus insulin (EI, D1). […] In these studies, insulin was also a necessary growth factor when used in combination with retinyl acetate. This may reflect the often-observed phenomenon of “carry-over” of bound EGF on cell surface growth factor receptor.
# HaCat keratinocytes [2] = experiment: inhibition of retinoid-induced autocrine growth of HaCat keratinocytes by receptor tyrosine kinase inhibitor; assay type: cell-based, human; details: standard medium + 5 ug/ml insulin + 3×10^−8 M retinyl acetate, d1, FIG. 5
# Method: In this experiment a selective inhibitor of receptor tyrosine protein phosphokinase was added to a culture of HaCat keratinocytes immediately prior to replacing the growth factor replete medium with HECK 110 serum free medium containing the combination insulin and retinyl acetate to induce autocrine growth. FIG. 5 presents a photograph showing three culture dishes with the following growth conditions: A. Standard growth medium (Std, d1); B. Standard growth medium containing the combination: 5 ug/ml insulin plus 3×10^−8M retinyl acetate (Ins+RAc, d1) and C. standard medium containing the combination: 5 ug/ml insulin, 3×10^−8M retinyl acetate and 2 uM of receptor tyrosine protein kinase inhibitor (Ins+Rac+RTKI, d1).
# HaCat keratinocytes [3] = experiment: wound healing zone (WHZ) wound gap closure in confluent HaCat keratinocyte sheets; assay type: cell-based, human; details: for healing of WHZ: 24 hours, with insulin
# Method: Keratinocytes were grown in a serum free medium supplemented with 5 ng/ml EGF and 5 ug/ml insulin and 0.2% fetal bovine serum and reseeded at 1×10^5 cells per cm^2 in to 35 mm 2 circular disposable Petri dishes and incubated at 37° C. until the cells completely filled the dish. These confluent cultures were then washed with ice-cold basal MCDB serum free medium and refed a serum free medium of the present invention whose composition is as shown in Table 1. A 2.5 mm linear wound was made across the midline of the diameter of the confluent culture with a 2.5 mm diameter heat-sealed tip of a 9 inch sterile Pasteur pipette. […] Wound of this diameter were routinely and reproducibly made by this technique and allow study of the effect of any agent that might have an effect on wound healing by measuring the delay in time it takes to fill in the wound gap of the WHZ.
# FIG. 6 is a photograph of 9 culture dishes fixed with 50% ethanol and stained with 0.2% crystal violet 24 hours after forming the WHZ and incubated in the serum free medium of this invention containing varying doses of retinyl acetate. The experiment was performed in duplicate dishes. There is only one dish labeled 3E-5 as its duplicate was contaminated with mold and was eliminated. Control dishes were refed serum free medium supplemented with insulin but no retinyl acetate. All of the other dishes were r3efed serum free medium with insulin and increasing amount of retinyl acetate. The mi9d line WHZ was filled by epidermal keratinocyte migration and cell growth in all of the dishes except for cultures that had retinyl acetate at concentrations greater than 3×10^−6 M.
# FIG. 7 show photomicrographs comparing wound closure in the WHZ for cultures of HaCat keratinocytes fixed and stained with crystal violet stain and photographed with bright field illumination.
# c-neu = experiment: indirect immunofluorescence c-neu staining of keratinocytes propagated with retinoic acid; assay type: cell-based, human; details: 5×10^−8 M all-trans retinoic acid
# Source text: In order to determine whether retinoids like retinyl acetate induced autocrine secretion of an EGF-like protein growth factor that binds to an EGF-like cell surface receptor, we designed an experiment using the erbB antibody purchased from Oncogene Sciences (Manhasset, N.Y.) and performed indirect immunofluoresnce (IIF) cytochemistry on fixed normal human neonatal foreskin keratinocytes prepared according to previous studies (Wille et al., 1984). The technique of indirect immunofluorescene was performed according to the antibody manufacturers instructions for c-neu antibody. The neu oncogene was discovered after serial transformation of cells using rat neuroblastoma DNA. The isolated oncogene hybridizes with v-erbB and has 50% homology to the normal EGF receptor, a tyrosine kinase type enzyme protein. The proto-oncogene for neu is designated c-erb-2.
# Normal human keratinocytes were propagated in a serum free medium composition containing 5×10.up.−8M all-trans retinoic acid, fixed and prepared for c-neu staining and detection by IIF as described in Experiment 1. […] We interpret this to mean that retinoid stimulation of autocrine growth proceeds through phosphorylation of an EGF-like receptor at points of cell-to-cell contact, which usually is only seen is post-mitotic suprabasal cells.
# [4] = system: adult human keratinocytes; details: cited from earlier work
# [5] = system: normal human keratinocytes; details: added to serum free growth factor supplemented medium; cited from earlier work
compound,measurement,setting,value
CC(=O)OC/C=C(C)/C=C/C=C(C)/C=C/C1=C(C)CCCC1(C)C (racemic) [retinyl acetate],keratinocyte clonal growth after one day (D1) compared with EGF plus insulin,"HaCat keratinocytes [1]; 5 ug/ml insulin + 3×10^−8 M retinyl acetate, D1, FIG. 2",stimulated keratinocyte growth as well as the combination (EI)
same,keratinocyte clonal growth,HaCat keratinocytes [1]; standard medium (Std) + 3×10^−8 M retinyl acetate alone,little if any keratinocyte growth
same,keratinocyte clonal growth,HaCat keratinocytes [1]; standard medium + 5 ug/ml insulin and 3×10^−8 M retinyl acetate,sufficient to support the growth; also recorded: the best result was stimulation of keratinocyte growth
same,"HaCat growth, dish B versus dishes A and C",HaCat keratinocytes [2],significant growth
same,healing of WHZ,HaCat keratinocytes [3]; 3×10^−5 M retinyl acetate,incomplete healing; also recorded: no healing; also recorded: complete failure to fill in the WHZ gap
same,healing of WHZ,HaCat keratinocytes [3]; 3×10^−6 M retinyl acetate,incomplete healing
same,healing in the WHZ,HaCat keratinocytes [3]; 3×10^−7 M retinyl acetate,~100%
same,healing of WHZ,HaCat keratinocytes [3]; 3×10^−7 M retinyl acetate,complete wound healing
same,healing of WHZ,HaCat keratinocytes [3]; 3×10^−8 M retinyl acetate,complete healing
CC1=C(/C=C/C(C)=C/C=C/C(C)=C/C(=O)O)C(C)(C)CCC1 [all-trans retinoic acid],c-neu staining pattern,"c-neu; no alkaline phosphatase pre-treatment, FIG. 4A",virtually all of the positive staining was strictly localized to focal adherence areas
same,c-neu phosphorylation,"c-neu; with alkaline phosphatase pretreatment, FIG. 4B",induced a labile phosphorylation of c-neu only at the focal adherence sites
same,effect on keratinocyte growth,[4]; concentrations lower than the optimal 0.5 ng/ml,ineffective
same,effect on keratinocyte growth,"[4]; growth factor deficient medium, growth arrested cells, 0.1-2.5 ng/ml",stimulated growth
same,optimal concentration required to produce the growth stimulation,[4]; growth factor deficient medium,0.5 ng/mL
same,effect on keratinocyte proliferation,"[4]; growth factor-supplemented medium, 0.1-2.5 ng/ml",inhibited proliferation
same,rate of keratinocyte proliferation relative to maximal rate in growth factor supplemented medium,"[4]; retinoid-stimulated cultures, growth factor deficient medium",approximately 35%
same,effect on clonal growth,[5],inhibits the clonal growth
"insulin: protein growth factor insulin, supplement of serum free medium",keratinocyte clonal growth,HaCat keratinocytes [1]; standard medium + insulin 5 ug/ml only (Std+Ins),less effective; also recorded: stimulated to grow

# From patent US20090131537A1, “Wound healing compositions” (priority 2007, published 2009)
